Where two headings read alike, the source gives them in different places.
Assays:
Assay type in all cases: in vivo
[1] = tested on: Plutella xylostella; assay: Test Example 6: spray on cabbage, Plutella xylostella larvae released; conditions: 120 h, read-out: death rate
Method: On the other hand, on cabbage at the third leaf stage planted in a polyethylene cup was sprayed, at a rate 20 mL/cup, the test drug solution. After the drug solution was dried, the foliage part was cut off, and then placed in a 50 mL volume cup. Five second instar larvae of Plutella xylostella were released into the cup, and the cup was sealed with a lid. After the cup was kept at 25°C for 5 days, the number of dead insects was counted. The death rate was calculated according to the following equation. Death rate (%) = (Number of dead insects/Number of tested insects) × 100 [formula]

[2] = tested on: Musca domestica; assay: whole plant or invertebrate; conditions: 24 h, read-out: death rate
Method: The formulations of Compounds of Present Invention 1-1, 1-40 and 1-42 as obtained in Formulation Example 5 were diluted with water, so as to have a concentration of the active ingredient of 500 ppm, to prepare a test drug solution.
A filter paper having a diameter of 5.5 cm was spread on the bottom of a polyethylene cup having the same diameter and 0.7 ml of the test drug solution was added dropwise onto the filter paper, and 30 mg of sucrose was uniformly placed as bait. Into the polyethylene cup, 10 female imagoes of Musca domestica were released, and the cup was sealed with a lid. After 24 hours, the life and death of Musca domestica was examined, the number of dead insects was counted, and the death rate was calculated according to the following equation. Death rate (%) = (Number of dead insects/Number of tested insects) × 100 [formula]

[3] = tested on: Culex pipiens pallens; assay: Test Example 10: Culex pipiens pallens larvae in treated water; conditions: 24 h, read-out: death rate
Excerpt: 20 last-instar larvae of Culex pipiens pallens were released into the solution. One day later, the life and death of the Culex pipiens pallens was examined, and the number of dead insects was counted to calculate the death rate. Death rate (%) = (Number of dead insects/Number of tested insects) × 100 [formula]

[4] = tested on: Haemaphysalis longicornis; assay: Test Example 11: coated screw tube contact test, Haemaphysalis longicornis ticks; conditions: 48 h, 2 mg compound in 0.2 mL acetone coated on inner wall of screw tube, unfed nymphal ticks, after 2 days, read-out: death rate
Method: 2 mg of each of Compounds of Present Invention 1-5, 1-24, 1-32 to 1-33, and 1-36 was weighed in a screw tube (Maruemu No. 5; 27 × 55 mm), 0.2 mL of acetone was added thereto, and the screw tube was sealed with a cap to dissolve the compound. The screw tube was rotated and inverted to uniformly coat the drug solution onto the whole inner wall of the tube. After removing the cap, the solution was air-dried for about 2 hours, then unfed nymphal ticks, Haemaphysalis longicornis (5 ticks/group) were released, and the tube was sealed with the cap. After 2 days, the number of dead insects was counted, and the death rate was calculated according to the following equation. Death rate (%) = (Number of dead insects/Number of tested insects) × 100 [formula]

[5] = tested on: Nilaparvata lugens; assay: Test Example 4: drench at foot of rice seedling, Nilaparvata lugens larvae released; conditions: active ingredient 500 ppm, 5 ml drench at foot of rice seedling, 7 days at 25°C, then third-fourth instar larvae kept 6 days; for mortality at 500 ppm: Nilaparvata lugens, soil, 144 h, read-out: control value
[6] = tested on: Adoxophyes orana fasciata; assay: Test Example 7: spray on apple tree, Adoxophyes orana fasciata larvae released; conditions: in Malus domestica, 168 h, active ingredient 500 ppm, 20 mL/cup sprayed on apple tree, first-instar larvae, after 7 days, read-out: death rate
Method: The formulations of Compounds of Present Invention 1-1 to 1-6, 1-10, 1-21, 1-28, 1-31 to 1-34, 1-39 and 1-42 as obtained in Formulation Example 5 were diluted with water, so as to have a concentration of the active ingredient of 500 ppm, to prepare a test spray solution.
On the other hand, an apple tree was planted in a plastic cup, and grown until the seventh-eighth true leaf was spread. To the apple tree was sprayed, at a rate of 20 mL/cup, the test drug solution. After the drug solution was dried, 60 first-instar larvae of Adoxophyes orana fasciata were released, and covered with a plastic cup the bottom of which was cut off and on which a filter paper was put, with the plastic cup cover placed upside-down. After 7 days, the number of dead insects was counted, and the death rate was calculated according to the following equation. Death rate (%) = (Number of dead insects/Number of tested insects) × 100 [formula]

[7] = tested on: Aphis gossypii; assay: Test Example 2: drench at foot of cucumber seedling, later inoculated with Aphis gossypii; conditions: soil, 144 h, active ingredient 500 ppm, 5 ml drench at foot of cucumber seedling, 7 days at 25°C, then inoculated and kept 6 days, read-out: control value
Method: (§1) On the other hand, a cucumber seedling (the second true leaf stage) planted in a plastic cup was drenched at its foot with 5 ml of the test drug solution, and kept in a greenhouse at 25°C for 7 days. On the cucumber leaf surface was inoculated about 30 Aphis gossypii (whole stage), and further kept in the greenhouse for 6 days, then the number of surviving Aphis gossypii parasitic on the leaves of the cucumber was examined, and the control value was calculated according to the following equation: Control value (%) = {1-(Cb×Tai)/(Cai×Tb)} × 100 [formula] wherein the symbols represent as follows: • Cb: the number of insects in a non-treated section before treatment • Cai: the number of surviving parasitic insects in a non-treated section on observation • Tb: the number of insects in a treated section before treatment • Tai: the number of surviving parasitic insects in a treated section on observation • wherein the non-treated section refers to a section where the test drug solution prepared by diluting the formulation obtained as in Formulation Example 5 but not containing the compound of the present invention with the same amount of water as in the treated section was sprayed.

[8] = tested on: Aphis gossypii; assay: Test Example 1: foliar spray on cucumber seedling inoculated with Aphis gossypii; conditions: 144 h, active ingredient 500 ppm, 20 ml sprayed on cucumber seedling, six days after spraying, read-out: control value
Method: as §1, with “hand, on” for “hand,”, “first” for “second”, “inoculated” for “drenched at its foot”, “with” for “with 5 ml of the test drug solution, and kept in a greenhouse at 25°C for 7 days. On the cucumber leaf surface was inoculated”, “left for a day. 20 ml of” for “further kept in”, “test drug solution was sprayed on the seedling. Six days after spraying,” for “greenhouse for 6 days, then”

[9] = tested on: Nilaparvata lugens; assay: Test Example 3: spray on rice seedling, Nilaparvata lugens larvae released; conditions: 144 h, active ingredient 500 ppm, 10 ml sprayed on rice seedling, third-fourth instar larvae, after 6 days, read-out: control value
[10] = active ingredient 500 ppm, 20 mL/cup sprayed on cabbage, second instar larvae, 25°C for 5 days
[11] = active ingredient concentration 3.5 ppm in ion-exchanged water, last-instar larvae, one day later

Q: With `CCS(=O)(=O)c1cc(C(=O)OC)cnc1-c1nc2cc(C(F)(F)F)cnc2n1C` [Compound of Present Invention 1-1, methyl 5-ethylsulfonyl-6-(3-methyl-6-trifluoromethyl-3H-imidazo[4,5-b]pyridin-2-yl)nicotinate] as the compound, how does the mortality at 500 ppm [1, 10] read?
A: ≥ 80%

Q: What about the mortality at 500 ppm [2] of the same compound?
A: 100%

Q: And the mortality at 3.5 ppm [3, 11]?
A: ≥ 95%

Q: With `CCCOC(=O)c1cnc(-c2nc3cc(C(F)(F)F)cnc3n2C)c(S(=O)(=O)CC)c1` [Compound of Present Invention 1-4, propyl 5-ethylsulfonyl-6-(3-methyl-6-trifluoromethyl-3H-imidazo[4,5-b]pyridin-2-yl)nicotinate] as the compound, how does the mortality at 500 ppm [1, 10] read?
A: ≥ 80%

Q: Which mortality at 2 mg/tube, 2 mg/tube [4] does the source give for `CCS(=O)(=O)c1cc(C(=O)OC(C)(C)C)cnc1-c1nc2cc(C(F)(F)F)cnc2n1C` [Compound of Present Invention 1-5, tert-butyl 5-ethylsulfonyl-6-(3-methyl-6-trifluoromethyl-3H-imidazo[4,5-b]pyridin-2-yl)nicotinate] here?
A: 100%

Q: `CCS(=O)(=O)c1cc(C(=O)N(C)C)cnc1-c1nc2cc(C(F)(F)F)cnc2n1C` [Compound of Present Invention 1-6, 5-ethylsulfonyl-N,N-dimethyl-6-(3-methyl-6-trifluoromethyl-3H-imidazo[4,5-b]pyridin-2-yl)nicotinamide] was tested. Which mortality at 500 ppm [1, 10] did it give?
A: ≥ 80%

Q: What about the mortality at 3.5 ppm [3, 11] of the same compound?
A: ≥ 95%

Q: What about the mortality at 500 ppm [5] of the same compound?
A: ≥ 90%

Q: What does the source list for `CCS(=O)(=O)c1cc(C(=O)NN(C)C)cnc1-c1nc2cc(C(F)(F)F)cnc2n1C` [Compound of Present Invention 1-7, 5-ethylsulfonyl-N',N'-dimethyl-6-(3-methyl-6-trifluoromethy 1-3H-imidazo[4,5-b]pyridin-2-yl)nicotinic acid hydrazide]?
A: mortality at 500 ppm [1]: ≥ 80%; mortality at 3.5 ppm [3]: ≥ 95%

Q: Which control value [5] does the source give for `CCS(=O)(=O)c1cc(C(=O)N2CCCC2)cnc1-c1nc2cc(C(F)(F)F)cnc2n1C` [Compound of Present Invention 1-8, 5-ethylsulfonyl-6-(3-methyl-6-trifluoromethyl-3H-imidazo[4,5-b]pyridin-2-yl)nicotinoylpyrrolidine] here?
A: ≥ 90%

Q: Which mortality at 500 ppm [1, 10] does the source give for `CCS(=O)(=O)c1cc(C(=O)NC(C)(C)C)cnc1-c1nc2cc(C(F)(F)F)cnc2n1C` [Compound of Present Invention 1-10, N-tert-butyl-5-ethylsulfonyl-6-(3-methyl-6-trifluoromethyl-3H-imidazo[4,5-b]pyridin-2-yl)nicotinamide] here?
A: ≥ 80%

Q: What about the mortality at 500 ppm [6] of the same compound?
A: ≥ 90%

Q: What about the mortality at 500 ppm [5] of the same compound?
A: ≥ 90%

Q: For `CCS(=O)(=O)c1cc(C(=O)N2CCOCC2)cnc1-c1nc2cc(C(F)(F)F)cnc2n1C` [Compound of Present Invention 1-13], which mortality at 500 ppm [7] is on record?
A: ≥ 90%

Q: What about the mortality at 3.5 ppm [3, 11] of the same compound?
A: ≥ 95%

Q: With `CCS(=O)(=O)c1cc(C(=O)N(C)OC)cnc1-c1nc2cc(C(F)(F)F)cnc2n1C` [Compound of Present Invention 1-18, 5-ethylsulfonyl-N-methoxy-N-methyl-6-(3-methyl-6-trifluoromethyl-3H-imidazo[4,5-b]pyridin-2-yl)nicotinamide] as the compound, how does the mortality at 500 ppm [8] read?
A: ≥ 90%

Q: What about the mortality at 500 ppm [7] of the same compound?
A: ≥ 90%

Q: And the mortality at 500 ppm [9]?
A: ≥ 90%

Q: How did the mortality at 3.5 ppm [3, 11] turn out when `CCS(=O)(=O)c1cc(C(=O)Nc2ccc(Cl)cc2)cnc1-c1nc2cc(C(F)(F)F)cnc2n1C` [Compound of Present Invention 1-20] was run?
A: ≥ 95%

Q: `CCS(=O)(=O)c1cc(C(C)=O)cnc1-c1nc2cc(C(F)(F)F)cnc2n1C` [Compound of Present Invention 1-21, 2-(5-acetyl-3-ethylsulfonylpyridin-2-yl)-3-methyl-6-trifluo romethyl-3H-imidazo[4,5-b] pyridine] was tested. Which mortality at 500 ppm [8] did it give?
A: ≥ 90%

Q: What about the mortality at 500 ppm [6] of the same compound?
A: ≥ 90%

Q: And the mortality at 500 ppm [7]?
A: ≥ 90%

Q: How did the mortality at 2 mg/tube, 2 mg/tube [4] turn out when `CCS(=O)(=O)c1cc(C(=O)NC2CC2)cnc1-c1nc2cc(C(F)(F)F)cnc2n1C` [Compound of Present Invention 1-24] was run?
A: 100%

Q: With `CCS(=O)(=O)c1cc(C(=O)OCC(F)(F)F)cnc1-c1nc2cc(C(F)(F)F)cnc2n1C` [Compound of Present Invention 1-28] as the compound, how does the mortality at 500 ppm [6] read?
A: ≥ 90%

Q: And the mortality at 3.5 ppm [3, 11]?
A: ≥ 95%

Q: With `CCS(=O)(=O)c1cc(C(=O)OCc2ccccc2)cnc1-c1nc2cc(C(F)(F)F)cnc2n1C` [Compound of Present Invention 1-32] as the compound, how does the mortality at 2 mg/tube, 2 mg/tube [4] read?
A: 100%

Q: What about the mortality at 3.5 ppm [3, 11] of the same compound?
A: ≥ 95%

Q: Which mortality at 2 mg/tube, 2 mg/tube [4] does the source give for `CCS(=O)(=O)c1cc(C(=O)OCCOC)cnc1-c1nc2cc(C(F)(F)F)cnc2n1C` [Compound of Present Invention 1-33] here?
A: 100%

Q: `CCS(=O)(=O)c1cc(C(=O)NC2CSC2)cnc1-c1nc2cc(C(F)(F)F)cnc2n1C` [Compound of Present Invention 1-36] was tested. Which mortality at 2 mg/tube, 2 mg/tube [4] did it give?
A: 100%

Q: For `CCOC(=O)c1cnc(-c2nc3cc([S+]([O-])C(F)(F)F)ccc3o2)c(S(=O)(=O)CC)c1` (centres unmarked) [Compound of Present Invention 1-39], which mortality at 500 ppm [1, 10] is on record?
A: ≥ 80%

Q: And the mortality at 500 ppm [6]?
A: ≥ 90%

Q: What about the mortality at 3.5 ppm [3, 11] of the same compound?
A: ≥ 95%

Q: How did the mortality at 500 ppm [1, 10] turn out when `CCS(=O)(=O)c1cc(C(N)=O)cnc1-c1nc2cc([S+]([O-])C(F)(F)F)ccc2o1` (centres unmarked) [Compound of Present Invention 1-41] was run?
A: ≥ 80%

Q: And the mortality at 3.5 ppm [3, 11]?
A: ≥ 95%

Q: For `CCS(=O)(=O)c1cc(C(=O)N(C)C)cnc1-c1nc2cc([S+]([O-])C(F)(F)F)ccc2o1` (centres unmarked) [Compound of Present Invention 1-42], which mortality at 500 ppm [1, 10] is on record?
A: ≥ 80%

Q: And the mortality at 500 ppm [2]?
A: 100%

Q: And the mortality at 500 ppm [6]?
A: ≥ 90%

Q: What about the mortality at 500 ppm [7] of the same compound?
A: ≥ 90%

Q: What about the mortality at 500 ppm [9] of the same compound?
A: ≥ 90%

Q: And the mortality at 500 ppm [5]?
A: ≥ 90%

Reference: EP2955179A1, “CONDENSED HETEROCYCLIC COMPOUND” (Sumitomo Chemical Company Limited, priority 2013, dated 2014)
